Source: patent publication US20260274799A1, “HETEROCYCLIC DERIVATIVES, COMPOSITIONS AND USES THEREOF” (DANATLAS PHARMACEUTICALS CO., LTD., priority 2023, published 2026)
Like-named read-outs stand apart in the source and are kept apart here.

Molecular target: T1, PPARγ-LBD (UniProt ID: P37231-2) (Homo sapiens, UniProt P37231)
T1 construct: PPARγ-LBD (UniProt ID: P37231-2) was expressed and purified in insect system; made in house
T1 sequence (P37231 238-503 limits assumed): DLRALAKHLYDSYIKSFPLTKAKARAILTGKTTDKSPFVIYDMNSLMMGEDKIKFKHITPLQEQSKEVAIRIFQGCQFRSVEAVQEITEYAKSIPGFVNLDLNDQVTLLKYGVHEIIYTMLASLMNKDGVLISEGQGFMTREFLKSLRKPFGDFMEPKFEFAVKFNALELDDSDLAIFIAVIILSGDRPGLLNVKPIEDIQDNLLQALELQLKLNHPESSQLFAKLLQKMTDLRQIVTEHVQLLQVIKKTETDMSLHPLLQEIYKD
Assay: PPARγ-SMRT recruitment assay (TR-FRET)
Format: biochemical
Details: for Emax: 1 h, read-out: Top %; for EC50: TR-FRET, SMRT peptide recruitment to PPARγ-LBD, 120 min pre-incubation
Method: PPARγ TR-FRET assay was initiated to evaluate potential activatory effect of the compounds of the present disclosure for SMRT recruitment to PPARγ protein. PPARγ-LBD (UniProt ID: P37231-2) was expressed and purified in insect system and stored at −80° C. in aliquots. Biotinylated SMRT peptide was synthesized (Biotin-[…]). 5 μL protein solution mixture consisting of 10 nM PPARγ-LBD and 2 nM Anti-His Eu (Cisbio, 61HISKLA) in assay buffer (25 mM HEPES pH7.4, 25 mM KCl, 1 mM EDTA, 0.01% BSA, 0.01% Tween-20, 1 mM TCEP) was added to 384-well plates containing duplicate 10-point dose response titration of compounds in 5 μL assay buffer (1% f.c. DMSO(v/v)). After 120 min pre-incubation at room temperature, 5 μL peptide solution mixture consisting of 50 nM Biotin-SMRT peptide and 25 nM Streptavidin-XL665 (Cisbio, 610SAXLA) added to plates. Plates were incubated for 60 min. and read in CLARIOstar Plus plate reader with Ex/Em 620 nm/[…]. Average TR-FRET ratio of high control (Wells with 10 uM control compound) was calculated as High Control (HC). Average TR-FRET ratio of low control (Wells with 1% DMSO) was calculated as Low control (LC). For one compound, top % is the max value of % Activation.
EC50 values were determined by fitting the data to the standard 4 parameters with Hill Slope using GraphPad Prism software. […] ND: No Determine.

[1] = max value of % Activation, high control 10 uM control compound, low control 1% DMSO

SMILES | Emax [1] [%] | EC50 [µM] | Emax [%]
Cc1ncccc1C#Cc1c(F)cc2[nH]c(-c3cc(C#N)ccc3S(C)(=O)=O)cc(=O)c2c1F [Example 29, 3-(5,7-Difluoro-6-((2-methylpyridin-3-yl)ethynyl)-4-oxo-1,4-dihydroquinolin-2-yl)-4-(methylsulfonyl)benzonitrile] | 357 | < 0.1 | 
CS(=O)(=O)c1ccc(C#N)cc1-c1cc(=O)c2c(F)c(C#Cc3ccccc3Cl)c(F)cc2[nH]1 [Example 33, 3-(6-((2-Chlorophenyl)ethynyl)-5,7-difluoro-4-oxo-1,4-dihydroquinolin-2-yl)-4-(methylsulfonyl)benzonitrile] | 502 | < 0.1 | 
Cc1cc(C#Cc2c(F)cc3[nH]c(-c4cc(C#N)ccc4S(C)(=O)=O)cc(=O)c3c2F)ccn1 [Example 27, 3-(5,7-Difluoro-6-((2-methylpyridin-4-yl)ethynyl)-4-oxo-1,4-dihydroquinolin-2-yl)-4-(methylsulfonyl)benzonitrile] |  | < 0.1 | 
CS(=O)(=O)c1ccc(C#N)cc1-c1cc(=O)c2c(F)c(C#Cc3ccccc3)c(F)cc2[nH]1 [Example 11, 3-(5,7-Difluoro-4-oxo-6-(phenylethynyl)-1,4-dihydroquinolin-2-yl)-4-(methylsulfonyl)benzonitrile] | 435 | < 0.1 | 
CS(=O)(=O)c1ccc(C#N)cc1-c1cc(=O)c2c(F)c(C#Cc3ccncc3OC(F)F)c(F)cc2[nH]1 [Example 47, 3-(6-((3-(Difluoromethoxy)pyridin-4-yl)ethynyl)-5,7-difluoro-4-oxo-1,4-dihydroquinolin-2-yl)-4-(methylsulfonyl)benzonitrile] |  | < 0.1 | 376
CCS(=O)(=O)c1ccc(C#N)cc1-c1cc(=O)c2c(F)c(C#CC3COC3)c(F)cc2[nH]1 [Example 46, 3-(5,7-Difluoro-6-(oxetan-3-ylethynyl)-4-oxo-1,4-dihydroquinolin-2-yl)-4-(ethylsulfonyl)benzonitrile] | 174 | < 0.1 | 
CS(=O)(=O)c1ccc(C#N)cc1-c1cc(=O)c2c(F)c(/C=C/c3ccccc3)c(F)cc2[nH]1 [Example 53, (E)-3-(5,7-Difluoro-4-oxo-6-styryl-1,4-dihydroquinolin-2-yl)-4-(methylsulfonyl)benzonitrile] | 650 | < 0.1 | 
CS(=O)(=O)c1ccc(C#N)cc1-c1cc(=O)c2c(F)c(C#CC3CCOCC3)c(F)cc2[nH]1 [Example 52, 3-(5,7-Difluoro-4-oxo-6-((tetrahydro-2H-pyran-4-yl)ethynyl)-1,4-dihydroquinolin-2-yl)-4-(methylsulfonyl)benzonitrile] |  | < 0.1 | 
COc1cccnc1C#Cc1c(F)cc2[nH]c(-c3cc(C#N)ccc3S(C)(=O)=O)cc(=O)c2c1F [Example 38, 3-(5,7-Difluoro-6-((3-methoxypyridin-2-yl)ethynyl)-4-oxo-1,4-dihydroquinolin-2-yl)-4-(methylsulfonyl)benzonitrile] |  | < 0.1 | 
CS(=O)(=O)c1ccc(C#N)cc1-c1cc(=O)c2c(F)c(C3CC3)c(F)cc2[nH]1 [Example 13, 3-(6-Cyclopropyl-5,7-difluoro-4-oxo-1,4-dihydroquinolin-2-yl)-4-(methylsulfonyl)benzonitrile] | 187 | < 0.1 | 
CS(=O)(=O)c1ccc(C#N)cc1-c1cc(=O)c2c(F)c(C#Cc3ccccc3F)c(F)cc2[nH]1 [Example 51, 3-(5,7-Difluoro-6-((2-fluorophenyl)ethynyl)-4-oxo-1,4-dihydroquinolin-2-yl)-4-(methylsulfonyl)benzonitrile] | 447 | < 0.1 | 
COc1cc(-c2cc(C#N)ccc2S(C)(=O)=O)nc2cc(F)c(C#CC(C)(C)F)c(F)c12 [Example 55, 3-(5,7-Difluoro-6-(3-fluoro-3-methylbut-1-yn-1-yl)-4-methoxyquinolin-2-yl)-4-(methylsulfonyl)benzonitrile] |  | > 1 | 
CS(=O)(=O)c1ccc(C#N)cc1-c1cc(=O)c2c(F)c(C#Cc3ccccc3C(F)(F)F)c(F)cc2[nH]1 [Example 44, 3-(5,7-Difluoro-4-oxo-6-((2-(trifluoromethyl)phenyl)ethynyl)-1,4-dihydroquinolin-2-yl)-4-(methylsulfonyl)benzonitrile] | 286 | < 0.1 | 

Second part, led by results:

Emax [1] [%] | EC50 [µM] | SMILES | Emax [%]
181 | < 0.1 | Cn1cc(C#Cc2c(F)cc3[nH]c(-c4cc(C#N)ccc4S(C)(=O)=O)cc(=O)c3c2F)cn1 [Example 12, 3-(5,7-Difluoro-6-((1-methyl-1H-pyrazol-4-yl)ethynyl)-4-oxo-1,4-dihydroquinolin-2-yl)-4-(methylsulfonyl)benzonitrile] | 
359 | < 0.1 | CS(=O)(=O)c1ccc(C#N)cc1-c1cc(=O)c2c(F)c(C#CC3CC3)c(F)cc2[nH]1 [Example 9, 3-(6-(Cyclopropylethynyl)-5,7-difluoro-4-oxo-1,4-dihydroquinolin-2-yl)-4-(methylsulfonyl)benzonitrile] | 
367 | < 0.1 | C[C@H](O)C#Cc1c(F)cc2[nH]c(-c3cc(C#N)ccc3S(C)(=O)=O)cc(=O)c2c1F [Example 5, (S)-3-(5,7-Difluoro-6-(3-hydroxybut-1-yn-1-yl)-4-oxo-1,4-dihydroquinolin-2-yl)-4-(methylsulfonyl)benzonitrile] | 
 | < 0.1 | CC(C)(C)C#Cc1c(F)cc2[nH]c(-c3cc(C#N)ccc3S(C)(=O)=O)cc(=O)c2c1F [Example 10, 3-(6-(3,3-Dimethylbut-1-yn-1-yl)-5,7-difluoro-4-oxo-1,4-dihydroquinolin-2-yl)-4-(methylsulfonyl)benzonitrile] | 
372 | < 0.1 | COC(C)(C)C#Cc1c(F)cc2[nH]c(-c3cc(C#N)ccc3S(C)(=O)=O)cc(=O)c2c1F [Example 50, 3-(5,7-Difluoro-6-(3-methoxy-3-methylbut-1-yn-1-yl)-4-oxo-1,4-dihydroquinolin-2-yl)-4-(methylsulfonyl)benzonitrile] | 
495 | < 0.1 | CC(C)(O)C#Cc1c(F)cc2[nH]c(-c3cc(C#N)ccc3S(C)(=O)=O)cc(=O)c2c1F [Example 1, 3-(5,7-Difluoro-6-(3-hydroxy-3-methylbut-1-yn-1-yl)-4-oxo-1,4-dihydroquinolin-2-yl)-4-(methylsulfonyl)benzonitrile] | 
613 | < 0.1 | Cc1ccccc1C#Cc1c(F)cc2[nH]c(-c3cc(C#N)ccc3S(C)(=O)=O)cc(=O)c2c1F [Example 17, 3-(5,7-Difluoro-4-oxo-6-(o-tolylethynyl)-1,4-dihydroquinolin-2-yl)-4-(methylsulfonyl)benzonitrile] | 
181 | < 0.1 | Cc1cccc(C#Cc2c(F)cc3[nH]c(-c4cc(C#N)ccc4S(C)(=O)=O)cc(=O)c3c2F)n1 [Example 31, 3-(5,7-Difluoro-6-((6-methylpyridin-2-yl)ethynyl)-4-oxo-1,4-dihydroquinolin-2-yl)-4-(methylsulfonyl)benzonitrile] | 
200 | < 0.1 | C[C@@H](O)C#Cc1c(F)cc2[nH]c(-c3cc(C#N)ccc3S(C)(=O)=O)cc(=O)c2c1F [Example 4, (R)-3-(5,7-Difluoro-6-(3-hydroxybut-1-yn-1-yl)-4-oxo-1,4-dihydroquinolin-2-yl)-4-(methylsulfonyl)benzonitrile] | 
311 | < 0.1 | C#Cc1c(F)cc2[nH]c(-c3cc(C#N)ccc3S(C)(=O)=O)cc(=O)c2c1F [Example 2, 3-(6-Ethynyl-5,7-difluoro-4-oxo-1,4-dihydroquinolin-2-yl)-4-(methylsulfonyl)benzonitrile] | 
210 | < 0.1 | CCC#Cc1c(F)cc2[nH]c(-c3cc(C#N)ccc3S(C)(=O)=O)cc(=O)c2c1F [Example 20, 3-(6-(But-1-yn-1-yl)-5,7-difluoro-4-oxo-1,4-dihydroquinolin-2-yl)-4-(methylsulfonyl)benzonitrile] | 
290 | < 0.1 | CS(=O)(=O)c1ccc(C#N)cc1-c1cc(=O)c2c(F)c(C#CC3CCOC3)c(F)cc2[nH]1 (centres unmarked) [Example 34, 3-(5,7-Difluoro-4-oxo-6-((tetrahydrofuran-3-yl)ethynyl)-1,4-dihydroquinolin-2-yl)-4-(methylsulfonyl)benzonitrile] | 
300 | < 0.1 | CS(=O)(=O)c1ccc(C#N)cc1-c1cc(=O)c2c(F)c(C#CCO)c(F)cc2[nH]1 [Example 3, 3-(5,7-Difluoro-6-(3-hydroxyprop-1-yn-1-yl)-4-oxo-1,4-dihydroquinolin-2-yl)-4-(methylsulfonyl)benzonitrile] | 
